Test results taken from the NIST ThermoML archive (doi:10.1016/j.tca.2018.08.017).
Several values for one entry are separate records, joined by “and”; a condition that tells them apart may be missing. Identical values can stand only once.

Settings: 101.33 kPa, Liquid

CCCCCCCCCCCCCCCCCC [octadecane]
viscosity
Settings | Concentric cylinders viscometry | Cone and plate viscometry
309.68 K | 3.276 mPa·s | –
309.75 K | – | 3.24 mPa·s
309.85 K | – | 3.3 mPa·s
309.95 K | – | 3.22 mPa·s and 3.2 mPa·s
310.04 K | 3.245 mPa·s | –
310.15 K | – | 3.21 mPa·s and 3.28 mPa·s and 3.42 mPa·s
310.25 K | – | 3.18 mPa·s
310.32 K | 3.229 mPa·s | –
310.35 K | – | 3.22 mPa·s and 3.26 mPa·s
310.41 K | 3.218 mPa·s | –
310.55 K | – | 3.18 mPa·s
310.65 K | – | 3.25 mPa·s and 3.14 mPa·s and 3.38 mPa·s
310.75 K | – | 3.17 mPa·s
310.77 K | 3.19 mPa·s | –
310.85 K | – | 3.24 mPa·s
310.95 K | – | 3.15 mPa·s and 3.12 mPa·s
311.04 K | 3.171 mPa·s | –
311.15 K | – | 3.14 mPa·s and 3.22 mPa·s and 3.35 mPa·s
311.16 K | 3.159 mPa·s | –
311.35 K | – | 3.14 mPa·s and 3.2 mPa·s and 3.1 mPa·s
311.54 K | 3.13 mPa·s | –
311.55 K | – | 3.14 mPa·s
311.65 K | – | 3.19 mPa·s and 3.32 mPa·s
311.75 K | – | 3.12 mPa·s and 3.07 mPa·s
311.78 K | 3.118 mPa·s | –
311.85 K | – | 3.17 mPa·s
311.95 K | – | 3.11 mPa·s
311.96 K | 3.099 mPa·s | –
312.05 K | – | 3.05 mPa·s
312.15 K | – | 3.1 mPa·s and 3.15 mPa·s and 3.28 mPa·s
312.33 K | 3.071 mPa·s | –
312.35 K | – | 3.1 mPa·s and 3.14 mPa·s
312.45 K | 3.065 mPa·s | 3.04 mPa·s
312.55 K | – | 3.07 mPa·s
312.65 K | – | 3.12 mPa·s and 3.26 mPa·s
312.69 K | 3.043 mPa·s | –
312.75 K | – | 3.07 mPa·s and 3.01 mPa·s
312.85 K | – | 3.1 mPa·s
312.95 K | – | 3.07 mPa·s
313.15 K | – | 3.04 mPa·s [middle of 6 runs]
313.18 K | 3.011 mPa·s and 3.01 mPa·s | –
313.24 K | 3.009 mPa·s | –
313.25 K | 3.009 mPa·s | –
313.26 K | 3.008 mPa·s and 3.011 mPa·s | –
313.34 K | 3.01 mPa·s | –
313.35 K | – | 3.01 mPa·s and 3.07 mPa·s
313.45 K | – | 2.98 mPa·s
313.55 K | 2.985 mPa·s | 3.01 mPa·s
313.65 K | – | 3.05 mPa·s and 3.21 mPa·s
313.75 K | – | 3.01 mPa·s
313.85 K | – | 3.04 mPa·s and 2.96 mPa·s
313.93 K | 2.956 mPa·s | –
313.95 K | – | 3 mPa·s
314 K | 2.951 mPa·s | –
314.15 K | – | 2.99 mPa·s and 3.02 mPa·s and 3.18 mPa·s
314.25 K | – | 2.93 mPa·s
314.3 K | 2.931 mPa·s | –
314.35 K | – | 2.96 mPa·s and 3.01 mPa·s
314.55 K | – | 2.97 mPa·s and 2.92 mPa·s
314.65 K | 2.907 mPa·s | 3 mPa·s and 3.16 mPa·s
314.67 K | 2.905 mPa·s | –
314.75 K | – | 2.97 mPa·s
314.85 K | – | 2.98 mPa·s
314.95 K | – | 2.94 mPa·s and 2.9 mPa·s
315.01 K | 2.882 mPa·s | –
315.15 K | – | 2.96 mPa·s and 2.97 mPa·s and 3.13 mPa·s
315.35 K | – | 2.91 mPa·s and 2.95 mPa·s and 2.88 mPa·s
315.41 K | 2.854 mPa·s | –
315.43 K | 2.857 mPa·s | –
315.55 K | – | 2.91 mPa·s
315.65 K | – | 2.94 mPa·s and 2.87 mPa·s and 3.1 mPa·s
315.75 K | – | 2.9 mPa·s
315.77 K | 2.833 mPa·s | –
315.85 K | – | 2.92 mPa·s
315.95 K | – | 2.89 mPa·s
316.05 K | – | 2.84 mPa·s
316.12 K | 2.81 mPa·s | –
316.13 K | 2.812 mPa·s | –
316.15 K | – | 2.88 mPa·s and 2.9 mPa·s and 3.08 mPa·s
316.35 K | – | 2.88 mPa·s and 2.89 mPa·s and 2.83 mPa·s
316.5 K | 2.785 mPa·s | –
316.55 K | – | 2.88 mPa·s
316.65 K | – | 2.87 mPa·s and 2.81 mPa·s and 3.06 mPa·s
316.75 K | – | 2.88 mPa·s
316.81 K | 2.771 mPa·s | –
316.83 K | 2.763 mPa·s | –
316.85 K | – | 2.86 mPa·s
316.95 K | – | 2.88 mPa·s
317.15 K | – | 2.86 mPa·s [middle of 4 runs]
317.2 K | 2.74 mPa·s | –
317.35 K | – | 2.83 mPa·s and 2.84 mPa·s
317.45 K | – | 2.79 mPa·s
317.46 K | 2.732 mPa·s | –
317.55 K | – | 2.82 mPa·s
317.61 K | 2.715 mPa·s | –
317.65 K | – | 2.84 mPa·s and 3.02 mPa·s
317.75 K | – | 2.84 mPa·s and 2.83 mPa·s
317.95 K | – | 2.82 mPa·s and 2.83 mPa·s
317.96 K | 2.694 mPa·s | –
318.08 K | 2.693 mPa·s | –
318.15 K | – | 2.83 mPa·s [middle of 5 runs]
318.26 K | 2.679 mPa·s | –
318.43 K | 2.672 mPa·s | –
318.45 K | 2.665 mPa·s | –
318.49 K | 2.653 mPa·s | –
318.5 K | 2.654 mPa·s | –
318.53 K | 2.655 mPa·s | –
318.57 K | 2.661 mPa·s | –
318.58 K | 2.662 mPa·s | –
318.59 K | 2.655 mPa·s | –
318.6 K | 2.659 mPa·s | –
318.61 K | 2.657 mPa·s | –
318.64 K | 2.654 mPa·s | –
318.65 K | 2.66 mPa·s | –
318.69 K | 2.655 mPa·s | –
